From the NIST ThermoML archive (doi:10.1016/j.jct.2019.03.018)
± gives the expanded uncertainty stated by the source.

details: Liquid; Ebulliometric method (Recirculating still)

Normal boiling temperature	SMILES
131.89 ± 0.7 °C	CCOCC(C)O (centres undefined) [1-ethoxy-2-propanol]
82.18 ± 0.7 °C	CC(C)O [propan-2-ol]
96.8 ± 0.7 °C	CCCO [propan-1-ol]
68.57 ± 0.7 °C	CC(C)OC(C)C [diisopropyl ether]
